Data reported in article PMC8999917, “Structure–Activity Relationship of Synthetic Ginkgolic Acid Analogs for Treating Type 2 Diabetes by PTPN9 Inhibition” (International Journal of Molecular Sciences, 2022).

Key:
[1] = molecular target: T1, PTPN9 (Homo sapiens, UniProt P43378); assay: PTPN9 enzyme inhibition with DiFMUP substrate; type: biochemical; conditions: DiFMUP 220 µM, PTPN9 0.15 nM; NA: no activity
T1 construct: made in house; host or cells: Escherichia coli Rosetta (DE3)
T1 sequence (P43378 277-581): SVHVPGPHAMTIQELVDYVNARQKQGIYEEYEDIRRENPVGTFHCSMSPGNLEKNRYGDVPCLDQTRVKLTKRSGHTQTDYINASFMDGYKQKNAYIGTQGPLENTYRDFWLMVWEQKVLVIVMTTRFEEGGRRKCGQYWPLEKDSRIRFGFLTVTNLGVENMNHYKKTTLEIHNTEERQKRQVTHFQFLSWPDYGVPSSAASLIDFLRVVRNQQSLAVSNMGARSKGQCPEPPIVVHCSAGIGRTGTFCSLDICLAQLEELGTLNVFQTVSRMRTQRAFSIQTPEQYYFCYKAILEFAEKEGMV
Method: (§1) The purification and kinetic analyses of PTPN9 and DUSP9 (Ser277–581) were performed following methods described in the literature, with slight modifications. PAGE analysis data and enzyme kinetic constants are presented in Figure S1 and Table S1, respectively. Enzyme activity in the presence or absence of the compounds was measured using DiFMUP, a representative PTP fluorogenic substrate. First, the inhibitory effects of compounds 1–3 were evaluated using 50 µM PTPN9 and 20 µM DUSP9. There was an increase in the inhibitory activity of compound 1 for both enzymes as the number of CH2 units increased from 9 to 14 (Figure 2A,B).
(§2) Next, the IC50 values of the compounds, which induce a 50% inhibition of DiFMUP hydrolytic enzyme activity, were determined (Table 1). The IC50 values were determined from the dose–response enzyme inhibition curves of each compound. The dose–response curves for compounds 1e and 1f against PTPN9 and DUSP9, respectively, are presented in Figure 2C,D. Dose–response curves were also obtained for the other compounds (Figures S2 and S3).
(§3) The methods employed for PTP overexpression and purification have been described in a previous study. In brief, human PTPN9 and DUSP9 were cloned into a pET28a vector (Merk Millipore, Darmstadt, Germany) containing a hexahistidine (His6) tag or a maltose-binding protein (MBP) tag in its N-terminus (see Supplementary Materials). Recombinant genes were separately transformed into Escherichia coli Rosetta (DE3) (Merk Millipore, Darmstadt, Germany), and the overexpression of each gene was induced via the addition of 0.1 mM IPTG (Ducherfa Biochemie, Haarlem, RV, USA). After 16 h of incubation at 18 °C, cell pellets were obtained via centrifugation (3570× g at 4 °C for 15 min), resuspended in lysis buffer (50 mM Tris, pH: 7.5, 500 mM NaCl, 5% glycerol, 0.025% 2-mercaptoethanol, and 1 mM phenyl-methylsulfonyl fluoride (PMSF)), and lysed by ultrasonication. Subsequently, cell lysates were centrifuged at 29,820× g for 30 min at 4 °C; then, the supernatant was collected and incubated with a cobalt affinity resin (TALON® Metal Affinity Resin, Takara Korea, Seoul, Korea). After 1 h of incubation at 4 °C, the desired proteins were eluted by adding the lysis buffer supplemented with 100 mM imidazole. Samples were stored at –80 °C until use.
(§4) The enzymatic activities of purified PTPN9 and DUSP9 were measured using 6,8-difluoro-4-methylumbelliferyl phosphate (DiFMUP), the most widely used fluorogenic PTP substrate in the literature. To determine KM values, PTPN9 (0.15 nM) and DUSP9 (200 nM) were added to a reaction buffer (20 mM Bis-tris, pH: 7.0, 150 mM NaCl, 2.5 mM dithiothreitol (DTT), and 0.01% Triton X-100) containing DiFMUP (800, 400, 200, 100, 50, 25, 12.5, or 6.25 μM) in a 96-well black plate. The final reaction volume was 100 µL. The fluorescence intensity was continuously monitored for 10 min (Ex/Em = 355/460 nm) on a Victor™ X4 multilabel plate reader (Perkin Elmer, Norwalk, CT, USA). KM values were obtained using Lineweaver–Burk plots analysis.
(§5) To evaluate the enzyme inhibitory effects of GA and its analogs, 10 µl of the enzyme stock solution (1.5 nM PTPN9 and 2 µM DUSP9) in the reaction buffer was added into the mixture of DiFMUP (to a final concentration of 220 µM and 90 µM for PTPN9 and DUSP9, respectively) and each compound (to a final concentration of 50 µM and 20 µM for PTPN9 and DUSP9, respectively) was added to the reaction buffer. Enzyme activity was measured as described above. Half-inhibitory concentration (IC50) values were determined under similar conditions, except for the concentrations of the inhibitors (200, 100, 50, 25, 12.5, 6.25, or 3.125 µM for PTPN9 and 25, 12.5, 6.25, 3.125, 1.563, 0.782, or 0.391 µM for DUSP9). The dose-dependent curve was fitted to the four-parameter logistic regression equation, (y = a + (b – a)/(1 + (x/c)^d), to obtain IC50 values using the Kaleida Graph software Ver. 4.1.3. (Synergy Software Inc, PA, USA).

[2] = molecular target: T2, DUSP9 (Homo sapiens, UniProt Q99956); assay: DUSP9 enzyme inhibition with DiFMUP substrate; type: biochemical; conditions: DiFMUP 90 µM, DUSP9 200 nM; NA: no activity
T2 construct: made in house; host or cells: Escherichia coli Rosetta (DE3)
T2 sequence (Q99956 1-384): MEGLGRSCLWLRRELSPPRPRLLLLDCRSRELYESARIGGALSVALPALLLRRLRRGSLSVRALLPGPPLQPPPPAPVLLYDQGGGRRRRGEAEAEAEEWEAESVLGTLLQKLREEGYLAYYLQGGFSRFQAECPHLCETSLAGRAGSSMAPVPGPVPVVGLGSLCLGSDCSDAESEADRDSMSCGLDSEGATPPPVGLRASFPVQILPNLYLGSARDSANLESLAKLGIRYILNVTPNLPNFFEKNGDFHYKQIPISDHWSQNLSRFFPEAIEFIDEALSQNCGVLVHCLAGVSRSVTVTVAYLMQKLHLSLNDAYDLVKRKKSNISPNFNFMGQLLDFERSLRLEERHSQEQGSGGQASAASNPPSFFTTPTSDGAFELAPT
Method: as §1, §2, §3, §4, §5

[3] = molecular target: T1, PTPN9; assay: Kinetics of DiFMUP hydrolysis by PTPN9; type: biochemical; conditions: [E] 0.15 nM
Method: (§6) The purification and kinetic analyses of PTPN9 and DUSP9 (Ser277–581) were performed following methods described in the literature, with slight modifications. […] Enzyme activity in the presence or absence of the compounds was measured using DiFMUP, a representative PTP fluorogenic substrate.
as §4

[4] = molecular target: T2, DUSP9; assay: Kinetics of DiFMUP hydrolysis by DUSP9; type: biochemical; conditions: [E] 200.0 nM
Method: as §6, §4

[5] = tested on: 3T3-L1 adipocytes; assay: 2-NBDG glucose uptake assay in differentiated 3T3-L1 adipocytes; type: cell-based, mouse; conditions: 100 nM
Method: PTPN9 inhibitors have been reported to increase glucose uptake. To clarify the antidiabetic effects of GA analogs, a 2-NBDG (a fluorescent glucose probe) uptake assay was performed using differentiated 3T3-L1 adipocytes and C2C12 myotubes. After 16 h of starvation, differentiated 3T3-L1 adipocytes were incubated with compounds 1e and 1f for another 1 h. The cells were subsequently incubated with 2-NBDG for 30 min and washed with PBS before quantifying the fluorescence of 2-NBDG taken up by the cells. The 2-NBDG uptake-increasing effects of GA and its analogs in 3T3-L1 cells were monitored via confocal microscopy. The blank group was set in the absence of 2-NBDG but was treated with DMSO to determine the basal fluorescence levels in 3T3-L1 adipocytes (Figure 4A, Basal); in the negative control group, 3T3-L1 adipocytes were treated with 2-NBDG and DMSO for the evaluation of basal glucose uptake levels (Figure 4A, DMSO). […] Furthermore, to quantify 2-NBDG uptake, fluorescence intensity (Ex/Em = 485/535 nm) was measured using a plate reader. […] After incubation, the cells were washed with pre-cold PBS, and the fluorescence intensity was measured using a fluorescence microplate reader (Victor^TM X4, PerkinElmer, Waltham, MA, USA) (Ex/Em = 485/535 nm). […]

| Molecule | IC50 [1] | IC50 [2] | further results |
| --- | --- | --- | --- |
| CCCCCCCCCCCOc1cccc(O)c1C(=O)O [Compound 1c] | 77.1 ± 0.78 µM | 23.9 ± 0.65 µM |  |
| CCCCCCCCCCCCOc1cccc(O)c1C(=O)O [Compound 1d] | 28.54 ± 0.1 µM | 8.61 ± 0.66 µM |  |
| CCCCCCCCCCCCCOc1ccc(C(=O)O)c(O)c1 [Compound 2] | 69.3 ± 6.22 µM | 5.27 ± 0.07 µM |  |
| CCCCCCCCCCCCCOc1ccc(O)c(C(=O)O)c1 [Compound 3] | 36.5 ± 1 µM | 4.68 ± 0.06 µM |  |
| Cc1cc(=O)oc2c(F)c(OP(=O)(O)O)c(F)cc12 [DiFMUP, 6,8-difluoro-4-methylumbelliferyl phosphate] |  |  | Km [3]: 110 µM; Vmax [3]: 1.73 μMmin-1; Km [4]: 45 µM; Vmax [4]: 1.65 μMmin-1; kcat [4]: 0.138 s⁻¹ |
| Insulin: positive control (100 nM) in the 2-NBDG uptake assay |  |  | 2-NBDG uptake (positive control) [5]: significantly stimulated 2-NBDG uptake |
